Tested on: HKB-11 lymphoma cells
Test: Label-free bottom-up LC-MS proteomics, differentially expressed proteins
Type: cell-based, human
Description: The HKB-11 lymphoma cells were placed in 6-well plates at a density of 3.0 × 10^6 cells/well and incubated overnight at 37 °C in 5% CO2. […] Treatments were performed in triplicate and incubated for 24 h under the same conditions. Following incubation, each flask of cells was subjected to a 0.25% w/v trypsin treatment for 4 min at 37 °C, and the cell culture medium was collected. Additionally, an equal volume of DMEM F-12 medium (containing 10% FBS) was added before mixing with the previously collected media to neutralise the trypsin. The cells were spun in a centrifuge at 500× g for 5 min at RT. The cell pellets were washed twice with ice-cold PBS and spun again at 500× g for 5 min. These cell pellets were then suspended in a lysis buffer that included 1 μL of universal nuclease (Easypep Mini Kit) (Thermo Fisher Scientific, Sydney, NSW, Australia) and supplemented with Halt™ Protease and Phosphatase Inhibitor Cocktail in a 1:100 ratio (Thermo Fisher Scientific, Sydney, NSW, Australia). The cells were gently pipetted 10–15 times to reduce the sample’s viscosity and then placed on ice for 20 min. The lysate was centrifuged at 14,000 rpm for 20 min at 4 °C, and the resulting liquid was collected.
The Pierce™ Rapid Gold BCA Protein Assay Kit (#A53226, Thermo Fisher Scientific, Sydney, NSW, Australia) was used to determine the protein concentration of the cell lysate in triplicate, using a bovine serum albumin (BSA) standard, following the manufacturer’s protocol. In brief, 1 μL of each sample replicate was diluted 1:20 in Milli-Q water, along with 20 μL of each standard, and then placed in a 96-well plate with 200 μL of working reagent in each well. Samples were diluted to a concentration within the 20–2000 μg/mL working range. The plate was thoroughly mixed on a plate shaker for 30 s and incubated at RT for 5 min, and then the absorbance was measured within 20 min at 480 nm using a microplate spectrophotometer (BMG CLARIOstar, Melbourne, VIC, Australia). The blank absorbance was subtracted from all other readings of standards and samples, and the sample concentration was determined using the established BSA standard calibration curve. The samples were then stored at −80 °C for further analysis.
The protein samples (100 μg) were subjected to chemical and enzymatic sample processing using the EasyPep™ Mini MS Sample Prep Kit following the manufacturer’s instructions (Thermo Fisher Scientific, Sydney, NSW, Australia) and as reported in the literature. Briefly, the sample volume was adjusted to 100 μL using a lysis buffer in a microcentrifuge tube. Subsequently, the reduction and alkylation solutions (50 μL each) were introduced, gently mixed, and incubated at 95 °C with a heat block for 10 min. The samples were allowed to cool to RT, after which 50 μL of the reconstituted trypsin/lys-C protease mixture was added to each sample and incubated with shaking at 37 °C for 3 h. Following incubation, 50 μL of a digestion stop solution was gently mixed into the samples. Peptide clean-up columns were used to remove both hydrophilic and hydrophobic impurities. The resulting clean peptide samples were dehydrated using a vacuum centrifuge and reconstituted in 100 μL of a 0.1% formic acid solution in water for LC–MS analysis. Subsequently, these samples were carefully transferred to maximum recovery sample vials (Waters Corp., Milford, MA, USA).
Label-free, bottom-up proteomic quantification was performed using a micro high-performance liquid chromatography system (Waters M-Class) coupled with a SCIEX™ TripleTOF® 6600 quadrupole time-of-flight mass spectrometer (SCIEX, Framingham, MA, USA), operated in positive electrospray ionisation mode (ESI+). […]

[1] = HKB-11, UB 300 μM, 24 h, vs untreated control, Q ≤ 0.05
[2] = HKB-11, N 3200 μM, 24 h, vs untreated control, Q ≤ 0.05

With `O=c1oc2cc(O)ccc2c2ccccc12` [UB, Urolithin B] the “Log2FC APOC3 (Apolipoprotein C-III)” value [1] was 2.04, the “Log2FC C4BPA (C4b-binding protein alpha chain)” value [1] was 4.39 and the “Log2FC CLEC11A (C-type lectin domain family 11 member A)” value [1] was 3.06. The “Log2FC COX6C (Cytochrome c oxidase subunit 6C)” value [1] was 2.07, the “Log2FC COX7C (Cytochrome c oxidase subunit 7C, mitochondrial)” value [1] was 2.08 and the “Log2FC FGB (Fibrinogen beta chain)” value [1] was 2.14. The “Log2FC GSN (Gelsolin)” value [1] was 2.26, the “Log2FC HBD (Haemoglobin subunit delta; Haemoglobin subunit beta)” value [1] was 5.94 and the “Log2FC HBE1 (Haemoglobin subunit epsilon; gam1; gamma-2)” value [1] was 5.63. The “Log2FC ITIH2 (Inter-alpha-trypsin inhibitor heavy chain H2)” value [1] was 2.76, the “Log2FC MAD2L1 (Mitotic spindle assembly checkpoint protein MAD2A)” value [1] was −1.45 and the “Log2FC MT-CO2 (Cytochrome c oxidase subunit 2)” value [1] was 2.34. The “Log2FC MT-ND4 (NADH-ubiquinone oxidoreductase chain 4)” value [1] was 2.24, the “Log2FC NDUFA11 (NADH dehydrogenase [ubiquinone] 1 alpha subcomplex subunit 11)” value [1] was 2.18 and the “Log2FC PCNA (Proliferating cell nuclear antigen)” value [1] was −0.63. For the same compound, the “Log2FC PSME3 (Proteasome activator complex subunit 3)” value [1] was −0.59, the “Log2FC SAMM50 (Sorting and assembly machinery component 50 homolog)” value [1] was 2.01 and the “Log2FC UBE2E1 (Ubiquitin-conjugating enzyme E2 E1; E2 E3; E2 E2)” value [1] was −1.69. For the same compound, the “Log2FC UBE2S (Ubiquitin-conjugating enzyme E2 S)” value [1] was −1.21.

With “Nisin (ITSISLCTPGCKTGALMGCNMKTATCHCSIHVSK; Lantibiotic nisin-A; UniProt P13068 24-57, looked up) [34-amino-acid lantibiotic peptide (bacteriocin) produced by Lactococcus lactis; purchased]” the “Log2FC CDK4 (Cyclin-dependent kinase 4)” value [2] was −1.26, the “Log2FC CTNNA1 (Catenin alpha-1)” value [2] was −0.97 and the “Log2FC HDAC1 (Histone deacetylase 1)” value [2] was −0.67. For the same compound, the “Log2FC LARP1 (La-related protein 1)” value [2] was −1.27, the “Log2FC MAPK14 (Mitogen-activated protein kinase 14)” value [2] was −0.80 and the “Log2FC NUP62 (Nuclear pore glycoprotein p62)” value [2] was −0.60. For the same compound, the “Log2FC POLR2E (DNA-directed RNA polymerases I, II, and III subunit RPABC1)” value [2] was −0.62, the “Log2FC POLR2G (DNA-directed RNA Polymerase II subunit RPB7)” value [2] was −0.63 and the “Log2FC POLR2H (DNA-directed RNA polymerases I, II, and III subunit RPABC3)” value [2] was −0.59. The “Log2FC PPP1R14B (Protein phosphatase 1 regulatory subunit 14B)” value [2] was −0.93, the “Log2FC PRC1 (Protein regulator of cytokinesis 1)” value [2] was −0.72 and the “Log2FC RFC1 (Replication factor C subunit 1)” value [2] was −0.85. The “Log2FC RFC2 (Replication factor C subunit 2)” value [2] was −0.59, the “Log2FC SRPK2 (SRSF protein kinase 2)” value [2] was −0.70 and the “Log2FC TYMS (Thymidylate synthase)” value [2] was −1.54. For the same compound, the “Log2FC PCNA” value (HKB-11, N treatment (3200 µM), 24 h, vs untreated control) was −0.63, the “Log2FC PLPBP (Pyridoxal phosphate homeostasis protein)” value (HKB-11, Nisin_3.2 / Control, Qvalue 0.00903294) was 0.58 and the “Log2FC THOC3 (THO complex subunit 3)” value (HKB-11, Nisin_3.2 / Control, Qvalue 0.0139626) was -0.58. The “Log2FC MAZ (Myc-associated zinc finger protein)” value (HKB-11, Nisin_3.2 / Control, Qvalue 0.0377318) was -0.58 and the “Log2FC TXNDC9 (Thioredoxin domain-containing protein 9)” value (HKB-11, Nisin_3.2 / Control, Qvalue 0.0383948) was -0.58.
